In ChEMBL document CHEMBL5331067, “Disubstituted pyrimidine-5-carboxamide derivatives as novel HIV-1 NNRTIs: Crystallographic overlay-based molecular design, synthesis, and biological evaluation” (Eur J Med Chem, 2023):

Key:
[1] = tested on: Human immunodeficiency virus 1; test: Antiviral activity against HIV-1 IIIB infected in human MT4 cells assessed as reduction in virus induced cytopathic effect incubated for 5 days by MTT assay; assay type: functional, organism-based; details: Human immunodeficiency virus 1, IIIB, MT4, 120 h
[2] = tested on: Human immunodeficiency virus 1; test: Antiviral activity against HIV-1 RES056 infected in human MT4 cells assessed as reduction in virus induced cytopathic effect incubated for 5 days by MTT assay; assay type: functional, organism-based; details: Human immunodeficiency virus 1, RES056, MT4, 120 h
[3] = Cytotoxicity against human MT4 cells assessed as cell growth inhibition incubated for 5 days by MTT assay; assay type: toxicity, cell-based; details: time 5 day
[4] = Selectivity index, ratio of CC50 for cytotoxicity against human MT4 cells assessed as reduction in cell viability to EC50 for antiviral activity against HIV-1 IIIB infected in human MT4 cells assessed as reduction in virus induced cytopathic effect; assay type: toxicity, cell-based; details: read-out: Ratio CC50/EC50
[5] = tested on: Human immunodeficiency virus 1; test: Antiviral activity against NNRTI-resistant HIV-1 harboring L100I mutant infected in human MT4 cells assessed as virus-induced cytopathicity incubated for 5 days by MTT assay; assay type: functional, organism-based; details: Human immunodeficiency virus 1, MT4, 120 h
[6] = tested on: Human immunodeficiency virus 1; test: Antiviral activity against NNRTI-resistant HIV-1 harboring K103N mutant infected in human MT4 cells assessed as virus-induced cytopathicity incubated for 5 days by MTT assay; assay type: functional, organism-based; details: Human immunodeficiency virus 1, MT4, 120 h
[7] = tested on: Human immunodeficiency virus 1; test: Antiviral activity against NNRTI-resistant HIV-1 harboring Y181C mutant infected in human MT4 cells assessed as virus-induced cytopathicity incubated for 5 days by MTT assay; assay type: functional, organism-based; details: Human immunodeficiency virus 1, MT4, 120 h
[8] = tested on: Human immunodeficiency virus 1; test: Antiviral activity against NNRTI-resistant HIV-1 harboring Y188L mutant infected in human MT4 cells assessed as virus-induced cytopathicity incubated for 5 days by MTT assay; assay type: functional, organism-based; details: Human immunodeficiency virus 1, MT4, 120 h
[9] = tested on: Human immunodeficiency virus 1; test: Antiviral activity against NNRTI-resistant HIV-1 harboring E138K mutant infected in human MT4 cells assessed as virus-induced cytopathicity incubated for 5 days by MTT assay; assay type: functional, organism-based; details: Human immunodeficiency virus 1, MT4, 120 h
[10] = tested on: Human immunodeficiency virus 1; test: Antiviral activity against NNRTI-resistant HIV-1 harboring F227L/V106A double mutant infected in human MT4 cells assessed as virus-induced cytopathicity incubated for 5 days by MTT assay; assay type: functional, organism-based; details: Human immunodeficiency virus 1, MT4, 120 h
[11] = Selectivity index, ratio of CC50 for cytotoxicity against human MT4 cells assessed as reduction in cell viability to EC50 for antiviral activity against NNRTI-resistant HIV-1 harboring L100I mutant infected in human MT4 cells; assay type: toxicity, cell-based; details: read-out: Ratio CC50/EC50
[12] = Selectivity index, ratio of CC50 for cytotoxicity against human MT4 cells assessed as reduction in cell viability to EC50 for antiviral activity against NNRTI-resistant HIV-1 harboring K103N mutant infected in human MT4 cells; assay type: toxicity, cell-based; details: read-out: Ratio CC50/EC50
[13] = Selectivity index, ratio of CC50 for cytotoxicity against human MT4 cells assessed as reduction in cell viability to EC50 for antiviral activity against NNRTI-resistant HIV-1 harboring Y181C mutant infected in human MT4 cells; assay type: toxicity, cell-based; details: read-out: Ratio CC50/EC50
[14] = Selectivity index, ratio of CC50 for cytotoxicity against human MT4 cells assessed as reduction in cell viability to EC50 for antiviral activity against NNRTI-resistant HIV-1 harboring Y188L mutant infected in human MT4 cells; assay type: toxicity, cell-based; details: read-out: Ratio CC50/EC50
[15] = Selectivity index, ratio of CC50 for cytotoxicity against human MT4 cells assessed as reduction in cell viability to EC50 for antiviral activity against NNRTI-resistant HIV-1 harboring E138K mutant infected in human MT4 cells; assay type: toxicity, cell-based; details: read-out: Ratio CC50/EC50
[16] = Selectivity index, ratio of CC50 for cytotoxicity against human MT4 cells assessed as reduction in cell viability to EC50 for antiviral activity against NNRTI-resistant HIV-1 harboring F227L/V106A double mutant infected in human MT4 cells; assay type: toxicity, cell-based; details: read-out: Ratio CC50/EC50
[17] = Selectivity index, ratio of CC50 for cytotoxicity against human MT4 cells assessed as reduction in cell viability to EC50 for antiviral activity against HIV-1 RES056 infected in human MT4 cells assessed as reduction in virus induced cytopathic effect; assay type: toxicity, cell-based; details: read-out: Ratio CC50/EC50
[18] = Fold resistance, ratio of EC50 for antiviral activity against NNRTI-resistant HIV-1 harboring L100I mutant infected in human MT4 cells assessed as virus-induced cytopathicity to EC50 for antiviral activity against HIV-1 IIIB infected in human MT4 cells assessed as reduction in virus induced cytopathic effect; assay type: functional
[19] = Fold resistance, ratio of EC50 for antiviral activity against NNRTI-resistant HIV-1 harboring K103N mutant infected in human MT4 cells assessed as virus-induced cytopathicity to EC50 for antiviral activity against HIV-1 IIIB infected in human MT4 cells assessed as reduction in virus induced cytopathic effect; assay type: functional
[20] = Fold resistance, ratio of EC50 for antiviral activity against NNRTI-resistant HIV-1 harboring Y181C mutant infected in human MT4 cells assessed as virus-induced cytopathicity to EC50 for antiviral activity against HIV-1 IIIB infected in human MT4 cells assessed as reduction in virus induced cytopathic effect; assay type: functional
[21] = Fold resistance, ratio of EC50 for antiviral activity against NNRTI-resistant HIV-1 harboring Y188L mutant infected in human MT4 cells assessed as virus-induced cytopathicity to EC50 for antiviral activity against HIV-1 IIIB infected in human MT4 cells assessed as reduction in virus induced cytopathic effect; assay type: functional
[22] = Fold resistance, ratio of EC50 for antiviral activity against NNRTI-resistant HIV-1 harboring E138K mutant infected in human MT4 cells assessed as virus-induced cytopathicity to EC50 for antiviral activity against HIV-1 IIIB infected in human MT4 cells assessed as reduction in virus induced cytopathic effect; assay type: functional
[23] = Fold resistance, ratio of EC50 for antiviral activity against NNRTI-resistant HIV-1 harboring F227L/V106A double mutant infected in human MT4 cells assessed as virus-induced cytopathicity to EC50 for antiviral activity against HIV-1 IIIB infected in human MT4 cells assessed as reduction in virus induced cytopathic effect; assay type: functional
[24] = Fold resistance, ratio of EC50 for antiviral activity against NNRTI-resistant HIV-1 harboring F227L/V106A double mutant infected in human MT4 cells assessed as virus-induced cytopathicity to EC50 for antiviral activity against HIV-1 RES056 infected in human MT4 cells assessed as reduction in virus induced cytopathic effect; assay type: functional
[25] = target: Human immunodeficiency virus type 1 reverse transcriptase (Human immunodeficiency virus 1, UniProt Q72547); test: Inhibition of wild type HIV-1 reverse transcriptase assessed as reduction of biotin-dUTP incorporation into […] using ABTS as substrate incubated for 1 hrs by ELISA analysis

Row | SMILES | EC50 [1] [nM] | EC50 [2] [µM] | CC50 at 120 h [3] [µM] | selectivity ratio [4] | EC50 [5] [nM] | EC50 [6] [nM] | EC50 [7] [nM] | EC50 [8] [nM] | EC50 [9] [nM] | EC50 [10] [nM] | selectivity ratio [11] | selectivity ratio [12] | selectivity ratio [13] | selectivity ratio [14] | selectivity ratio [15] | selectivity ratio [16] | selectivity ratio [17] | Ratio EC50 [18] | Ratio EC50 [19] | Ratio EC50 [20] | other results
1 | Cc1cc(C#N)cc(C)c1Oc1nc(NC2CCN(Cc3ccc(S(N)(=O)=O)cc3)CC2)ncc1C(N)=O | 46 | 6.12 | 198 | 4300 | 209 | 62 | 295 | 234 | 291 | 439 | 946 | 3180 | 671 | 847 | 680 | 451 | 32 | 4.5 | 1.3 | 6.4 | Ratio EC50 [21]: 5.1; Ratio EC50 [22]: 6.3; Ratio EC50 [23]: 9.5; Ratio EC50 [24]: 132.9; IC50 [25]: 163 nM
2 | Cc1cc(C#N)cc(C)c1Oc1nc(NC2CCN(c3ccc(N)cc3)CC2)ncc1C(N)=O | 42 | 4 | 183 | 4420 | 275 | 45 | 252 | 255 | 208 | 1080 | 668 | 4120 | 726 | 718 | 881 | 169 | 46 | 6.6 | 1.1 | 6.1 | Ratio EC50 [21]: 6.2; Ratio EC50 [22]: 5; Ratio EC50 [23]: 26.1; Ratio EC50 [24]: 96.4; IC50 [25]: 242 nM
3 | Cc1cc(C#N)cc(C)c1Oc1nc(NC2CCN(Cc3ccc(B(O)O)cc3)CC2)ncc1C(N)=O | 42 | 6.63 | > 250 | > 5990 | 133 | 45 | 159 | 209 | 165 | 1090 | > 187 | > 5550 | > 1570 | > 1190 | > 1520 | > 229 | > 38 | 3.2 | 1.1 | 3.8 | Ratio EC50 [21]: 5; Ratio EC50 [22]: 4; Ratio EC50 [23]: 26.2; Ratio EC50 [24]: 159.1; IC50 [25]: 1040 nM
4 | Cc1cc(C#N)cc(C)c1Oc1nc(NC2CCN(c3ccc(NS(=O)(=O)C4CC4)cc3)CC2)ncc1C(N)=O | 8 | 0.042 | 208 | 27200 | 65 | 9 | 45 | 35 | 734 | 34 | 3190 | 23400 | 4570 | 6000 | 283 | 6070 | 4920 | 8.5 | 1.2 | 6 | Ratio EC50 [21]: 4.5; Ratio EC50 [22]: 96.2; Ratio EC50 [23]: 4.5; Ratio EC50 [24]: 5.5; IC50 [25]: 38 nM
5 | Cc1cc(C#N)cc(C)c1Oc1nc(Nc2ccc(C#N)c(F)c2)ncc1C(N)=O | 11 | 7.19 | 34.9 | 3230 | 50 | 20 | 180 | 101 | 51 | 3110 | 698 | 1770 | 194 | 345 | 681 | 11 | 5 | 4.6 | 1.8 | 16.6 | Ratio EC50 [21]: 9.4; Ratio EC50 [22]: 4.7; Ratio EC50 [23]: 287.6; Ratio EC50 [24]: 663.7; IC50 [25]: 170 nM
